# Results reported in PMC8824275, “Gastrointestinal Stability and Cytotoxicity of Bacteriocins From Gram-Positive and Gram-Negative Bacteria: A Comparative in vitro Study” (Frontiers in Microbiology, 2022).
# Like-named read-outs stand apart in the source and are kept apart here. Bridge positions count the residues as written; N and C are the ends. Square brackets hold non-standard residues; d marks the D form. Ends that are not written are not given here. Peptide text beside a SMILES is read from it. Abu = CC[C@H](N)C(=O)O; Dhb = C/C=C(\N)C(=O)O; Dha = C=C(N)C(=O)O
# Tests used:
# S. aureus ATCC 6538 = assay type: cell-based, Staphylococcus aureus; details: for Total activity: broth microdilution
# From the text: (§1) Microcin J25 was produced by Escherichia coli MC4100 carrying the plasmid PTUC 202 ([Solbiati et al., 1999]). For the antibacterial activity of pure compounds and digestion mixture, Listeria ivanovii HPB28 (Canada Health Protection Branch) was used as indicator strain for nisin and pediocin PA-1, while Staphylococcus aureus ATCC 6538 (ATCC) and Salmonella enterica subsp. enterica serovar Newport ATCC 6962 (later referred to as S. Newport, ATCC) were used as indicator strains for bactofencin A (M14L, M18L) and microcin J25, respectively. L. ivanovii HPB28 and S. aureus were cultured in Tryptic Soy (Difco Laboratories, Spark, MD, United States) supplemented with 0.6% yeast extract (TSBYE), at 30 and 37°C, respectively. S. Newport was cultured at 37°C overnight in Luria-Bertani (LB) (Difco Laboratories, Spark, MD, United States). All strains were maintained at –80°C as stock cultures in their corresponding culture media supplemented with 20% glycerol, and propagated twice at 24 h intervals before use.
# (§2) Quantitative determination of inhibitory activity of bacteriocins was carried out using the broth microdilution method as described by [Ben Said et al. (2020)]. Two-fold serial dilutions of bacteriocins (125 μL) were prepared in an appropriate medium in a clear 96-well flat-bottom microtiter plate. Indicator strains were diluted to 10^5 CFU/mL, from which 50 μL were added to each well. The microtiter plates were incubated for 24 h under appropriate conditions, and optical densities were recorded at 595 nm (Infinite M200, Tecan, Switzerland). Control wells contained untreated culture and appropriate medium (blanks). The number of inhibition wells was noted and inhibition activities were calculated in μg/mL.
# S. Newport ATCC 6962 = assay type: cell-based, Salmonella enterica subsp. enterica serovar Newport; details: for Total activity: broth microdilution
# From the text: as §1, §2
# [1] = cited from earlier work
# From the text: There are limited number of studies regarding the stability of bacteriocins in the GI tract. It has been shown that bacteriocins can be degraded by proteolytic enzymes such as pepsin, trypsin and chymotrypsin in the stomach or intestine ([Fernandez et al., 2013]). […] However, in the current study, pediocin PA-1(M31L) and bactof ...
# rat erythrocytes = test: Hemolytic activity; assay type: cell-based; details: 0.4 to 400 μg/mL, 45 min, 37°C
# Procedure: The experiment was performed after prior approval from the local ethics committee by TransBIOTech laboratory. Hemolytic potential of bacteriocins was evaluated according to [FDA (2005)]. Rat blood was collected into a heparinized tube and added in a 1:1 volume (100 μL) to serially diluted compounds (in 100 μL PBS), in a conical 96-well plate. 10% Triton X-100 and PBS were used as a positive and negative controls, respectively. The plates were sealed and incubated for 45 min at 37°C prior to centrifugation at 2,000 g for 10 min to pellet red blood cells. The supernatant was then transferred into clear 96-well plates and the absorbance was read at 540 nm (hemoglobin). The percentage of hemolysis was calculated as follow, with RBC standing for red blood cells:
# %Hemolysis=AbsorbanceofRBCtreatedwithbacteriocins-AbsorbanceofRBCtreatedwithPBS/AbsorbanceofRBCtreatedwithTritonX100-AbsorbanceofRBCtreatedwithPBS
# human red blood cells = details: 750 μM (2.5 mg/mL), ref Begde et al., 2011; cited from earlier work
# Procedure: (§3) Hemolytic activity is used for initial toxicity assessment and estimation of therapeutic index. Nisin remains to be the most studied bacteriocin, while there are very few data available for the other bacteriocins. […] Hemolytic activity of nisin A (Nisaplin®) at 3.35 μg/mL concentration was reported to be 6% in human red blood cells. In another study by [Maher and McClean (2006)], hemolytic activity exerted by 230 μM (771 μg/mL) nisin A (Nutrition 21) was shown ...
# Vero cells = details: cited from earlier work
# From the text: (§4) To the best of our knowledge, this is the first study that evaluates the cytotoxicity of several bacteriocins with different structures, mechanisms of actions and spectra of inhibitory activity.
# Caco-2 = details: MTT assay, ref Maher and McClean, 2006; cited from earlier work
# From the text: as §4
# HT29 (epithelial cells) = details: MTT assay, ref Maher and McClean, 2006; cited from earlier work
# From the text: as §4
# HepG2 cells = details: ref Paiva et al., 2012; cited from earlier work
# From the text: as §4
# MCF-7 cells = details: ref Paiva et al., 2012; cited from earlier work
# From the text: as §4
# sheep erythrocytes = details: sheep blood cells, 33.75 μM (113 μg/mL); ref Paiva et al., 2012; cited from earlier work
# Procedure: as §3
# [2] = test system: human cells relevant to oral cavity; details: concentration up to 200 μg/mL; ref Shin et al. (2015); cited from earlier work
# L. ivanovii HPB 28 = assay type: cell-based, Listeria ivanovii; details: broth microdilution
# From the text: as §1, §2
# SV40 cells = details: 700 AU/mL (approximately 10–20 mg/mL), trypan blue, ref Murinda et al., 2003; cited from earlier work
# From the text: as §4
# [3] = after oral conditions (SSF, 2 min, 37°C)
# [4] = pure compound without GI digestion, 24 h, OD 595 nm
# [5] = TIM-1 dynamic model, ref Kheadr et al., 2010
molecule,measurement,setting,value
"CC(C)C[C@@H]1NC(=O)CNC(=O)[C@H]([C@@H](C)O)NC(=O)[C@@H]2CCCN2C(=O)[C@H](CC(C)C)NC(=O)CNC(=O)[C@H](CC(N)=O)NC(=O)[C@H](CC(N)=O)NC(=O)[C@H](Cc2ccc(O)cc2)NC(=O)[C@H](C(C)C)NC(=O)[C@H](CCCNC(=N)N)NC(=O)[C@@H](NC(=O)[C@H](CCCNC(=N)N)NC(=O)[C@H](Cc2c[nH]cn2)NC(=O)[C@H](CCCCN)NC(=O)[C@H](CCCCN)NC(=O)[C@H](CCCNC(=N)N)NC(=O)[C@@H](N)CCCCN)CSSC[C@@H](C(N)=O)NC(=O)[C@H](Cc2c[nH]c3ccccc23)NC(=O)[C@H](CCCNC(=N)N)NC(=O)[C@H](Cc2ccc(O)cc2)NC1=O [bactofencin A(M14L, M18L)] (H-KRKKHRCRVYNNGLPTGLYRWC-NH2; disulfide 7-22 (inferred); N-terminus and C-terminus assumed)",MIC,"S. aureus ATCC 6538; ATCC 6538, 24 h",5 µg/mL
same,Total activity,S. aureus ATCC 6538; [3],10.4 AU/mL
same,Total activity,S. aureus ATCC 6538; [4],10.4 AU/mL
CC[C@H](C)[C@H](NC(=O)CNC(=O)[C@@H](NC(=O)[C@H](Cc1ccccc1)NC(=O)[C@H](Cc1ccc(O)cc1)NC(=O)[C@@H]1CCC(=O)NCC(=O)NCC(=O)N[C@@H](C)C(=O)NCC(=O)N[C@@H](Cc2c[nH]cn2)C(=O)N[C@@H](C(C)C)C(=O)N2CCC[C@H]2C(=O)N1)C(C)C)C(=O)NCC(=O)N[C@H](C(=O)N1CCC[C@H]1C(=O)N[C@H](C(=O)N[C@@H](CO)C(=O)N[C@@H](Cc1ccccc1)C(=O)N[C@@H](Cc1ccc(O)cc1)C(=O)NCC(=O)O)[C@@H](C)CC)[C@@H](C)O [microcin J25] (GGAGHVPEYFVGIGTPISFYG-OH; lactam N-8 (inferred); C-terminus assumed),MIC,"S. Newport ATCC 6962; ATCC 6962, 24 h",0.0356 µg/mL
same,Total activity,"S. Newport ATCC 6962; after gastric conditions (SGF, pepsin 2000 U/mL, lipase 60 U/mL, pH 3, 90 min, 37°C)",0.0712 AU/mL
same,Total activity,S. Newport ATCC 6962; [3],0.0712 AU/mL
same,Total activity,"S. Newport ATCC 6962; after small intestinal conditions (SIF, bile salt 10 mmol/L, pancreatin 100 U/mL, pH 7, 2 h, 37°C)",0.356 AU/mL
same,Total activity,S. Newport ATCC 6962; [4],0.0712 AU/mL
CC[C@H](C)[C@H](NC(=O)CNC(=O)[C@@H](NC(=O)[C@H](Cc1ccccc1)NC(=O)[C@H](Cc1ccc(O)cc1)NC(=O)[C@@H]1CCC(=O)NCC(=O)NCC(=O)N[C@@H](C)C(=O)NCC(=O)N[C@@H](Cc2cnc[nH]2)C(=O)N[C@@H](C(C)C)C(=O)N2CCC[C@H]2C(=O)N1)C(C)C)C(=O)NCC(=O)N[C@H](C(=O)N1CCC[C@H]1C(=O)N[C@H](C(=O)N[C@@H](CO)C(=O)N[C@@H](Cc1ccccc1)C(=O)N[C@@H](Cc1ccc(O)cc1)C(=O)NCC(=O)O)[C@@H](C)CC)[C@@H](C)O [microcin J25] (GGAGHVPEYFVGIGTPISFYG-OH; lactam N-8),Degradation upon exposure to pancreatin (small intestine),[1],only partially degraded
same,Resistance to the proteolytic enzymes in the stomach,[1],highly resistant
"KYYGNGVTCGKHSCSVDWGKATTCIINNGALAWATGGHQGNHKC-OH (disulfide 9-14, 24-44) [pediocin PA-1(M31L)]",Concentration above which dose-dependent increase in percentage of hemolysis was shown,rat erythrocytes,higher than 50 μg/mL
nisin,Relative hemolysis,human red blood cells,10%
"nisin A (I[Dhb]AI[Dha]LC[Abu]PGCK[Abu]GALMGCNMK[Abu]A[Abu]CHCSIHV[Dha]K; thioether (positions not given here); not fully specified (residues 7, 11, 19, 26, 28, bridges); UniProt P13068 24-57, looked up) [nisin A (Nisaplin®), commercial nisin A product Nisaplin (Danisco)]",EC50,"Vero cells; LDH cytotoxicity assay, ref Vaucher et al. (2010)",0.62 µg/mL
"nisin A (I[Dhb]AI[Dha]LC[Abu]PGCK[Abu]GALMGCNMK[Abu]A[Abu]CHCSIHV[Dha]K; thioether (positions not given here); not fully specified (residues 7, 11, 19, 26, 28, bridges); UniProt P13068 24-57, looked up) [nisin A (Nutrition 21), commercial nisin A (Nutrition 21)]",IC50,Caco-2,385.7 µg/mL
same,IC50,HT29 (epithelial cells),301.5 µg/mL
nisin C [nisin C (Chrisin®)],Concentration reducing viability to 50%,HepG2 cells,352 µg/mL
same,Concentration reducing viability to 50%,MCF-7 cells,352 µg/mL
same,Concentration reducing viability to 50%,"Vero cells; ref Paiva et al., 2012",45.21 µg/mL
same,Hemolysis,sheep erythrocytes,6.6%
"nisin Z (I[Dhb]AI[Dha]LC[Abu]PGCK[Abu]GALMGCNMK[Abu]A[Abu]CNCSIHV[Dha]K; thioether (positions not given here); not fully specified (residues 7, 11, 19, 26, 28, bridges); UniProt P29559 24-57, looked up) [nisin Z (Handary, Brussels, Belgium), commercial nisin Z from Handary]",Toxic effect,[2],did not exert any toxic effect
"pediocin PA-1 (KYYGNGVTCGKHSCSVDWGKATTCIINNGAMAWATGGHQGNHKC; disulfide 9-14, 24-44; UniProt P29430 19-62, looked up) [wild-type bacteriocin naturally produced by Pediococcus acidilactici, literature data]",Total activity,L. ivanovii HPB 28; [3],0.18 AU/mL
same,Total activity,L. ivanovii HPB 28; [4],0.18 AU/mL
same,Cell viability reduced to,SV40 cells,36%
same,Stability in the small intestine,[1]; [5],completely degraded
same,Stability in the stomach,[1]; [5],stable
